Source: PMC7576608, “Mechanisms of telomerase inhibition by oxidized and therapeutic dNTPs” (Nature Communications, 2020)
Where “and” joins values, the source holds several entries; their conditions need not be identical. Equal entries are not always repeated. Where two headings read alike, the source gives them in different places.

Target: telomerase (Homo sapiens, UniProt O14746)
Test: Telomerase repeat processivity IC50: modified dNTP titrated into reactions with all four natural dNTPs
Type: biochemical
Design: made in house; anti-FLAG immunopurification, eluted with 3xFLAG peptide
Settings: for LogIC50 (processivity): concentration in μM
Source text: In order to better understand the ability of modified dNTPs to compete with natural dNTPs for telomerase utilization, we added modified dNTPs to reactions containing all four natural dNTPs. […] The calculated IC50 determines the concentration required to reduce repeat processivity in the bulk reactions by half. However, it is important to note that bulk experiments cannot distinguish effects on individual telomeres, since extended telomeres mask unextended telomeres. Incorporation of a chain terminator during any step will terminate extension of the affected telomere, and just five critically short telomeres are sufficient to trigger senescence. Therefore, repeat processivity IC50 values are not necessarily an indicator of the inhibitory potency, but provide information on selectivity for modified dNTPs compared to natural dNTPs. […] The ability to purify sufficient quantities of tcTERT enables characterization of the catalytic nucleotide addition by pre-steady-state single turnover kinetics using a defined DNA–RNA primer–template substrate. The catalytic efficiency of incorporating a single dNTP is measured by dividing the observed nucleotide incorporation rate constant, kpol, by the equilibrium dissociation constant for dNTP binding to the tcTERT–primer–template complex (Kd)[44].
The reactions were started by the addition of 3 μl of immunopurified telomerase eluent, incubated at 37 °C for 1 h, then terminated with 2 μl of […] and heat inactivated at 65 °C for 20 min. An equal volume of loading buffer (94% formamide, 0.1× TBE, 0.1% bromophenol blue, 0.1% xylene cyanol) was added to the reaction eluent. The samples were heat denatured for 10 min at 100 °C and loaded onto a 14% denaturing acrylamide gel (7 M urea, 1× TBE) and electrophoresed for 90 min at constant 38 W. Samples were imaged using a Typhoon phosphorimager (GE Healthcare). Percent primer extension was calculated with ImageQuant TL 8.2 by measuring the intensity of each product band and dividing by the total radioactivity in the lane or total products, as indicated in the figure legends.
The processivity was calculated as described[40],[67]. Repeat processivity from the direct telomerase extension assays was calculated as R1/2 (equivalent to the half-time for decay in an exponential time course), which represents the median length of DNA product formed, expressed in terms of number of telomere repeats. First, the total volume counts for each product band extend by one or more telomere repeats were obtained using Image Quant TL. The volume counts were then normalized by dividing by the number of radiolabeled guanosines incorporated into the extended products based on the number of repeats added, termed corrected volume (corr vol). The “percent left behind” (%LB) was calculated for each product band by summing the counts for that product band and for every product band below (shorter products), divided by the total counts for the lane, and then multiplied by 100. The natural log of (100−%LB) was calculated and then plotted vs. repeat number for each product length. A linear regression line was fit to the data to determine the slope of the line. The R1/2 value was calculated by dividing −ln(2) by the slope of each fitted line (R1/2 = −ln(2)/slope).
Supplementary Fig 8. IC50 values for telomerase processivity inhibition. Telomerase reactions were conducted with cellular relevant concentrations of all four natural dNTPs and increasing concentrations of the modified dNTP analog from 0 to 10,000 μM to calculate. (a) The natural log of (100-%LB) was plotted vs repeat number. A straight line was fit to the data and the R1/2 value was calculated by dividing –ln(2) by the slope of each line. Plots shown from one experiment are […]

[1] = cellular relevant natural dNTPs, modified dNTP titrated 0 to 10,000 μM, based on repeat processivity, mean ± SD, read-out: Telomerase processivity IC50
[2] = log of processivity IC50 (concentration in μM), Supplementary Fig 8b, read-out: Log IC50 (converted)
[3] = 6-thio-dGTP, per replicate N1-N3

telomerase, sequence (O14746 whole entry): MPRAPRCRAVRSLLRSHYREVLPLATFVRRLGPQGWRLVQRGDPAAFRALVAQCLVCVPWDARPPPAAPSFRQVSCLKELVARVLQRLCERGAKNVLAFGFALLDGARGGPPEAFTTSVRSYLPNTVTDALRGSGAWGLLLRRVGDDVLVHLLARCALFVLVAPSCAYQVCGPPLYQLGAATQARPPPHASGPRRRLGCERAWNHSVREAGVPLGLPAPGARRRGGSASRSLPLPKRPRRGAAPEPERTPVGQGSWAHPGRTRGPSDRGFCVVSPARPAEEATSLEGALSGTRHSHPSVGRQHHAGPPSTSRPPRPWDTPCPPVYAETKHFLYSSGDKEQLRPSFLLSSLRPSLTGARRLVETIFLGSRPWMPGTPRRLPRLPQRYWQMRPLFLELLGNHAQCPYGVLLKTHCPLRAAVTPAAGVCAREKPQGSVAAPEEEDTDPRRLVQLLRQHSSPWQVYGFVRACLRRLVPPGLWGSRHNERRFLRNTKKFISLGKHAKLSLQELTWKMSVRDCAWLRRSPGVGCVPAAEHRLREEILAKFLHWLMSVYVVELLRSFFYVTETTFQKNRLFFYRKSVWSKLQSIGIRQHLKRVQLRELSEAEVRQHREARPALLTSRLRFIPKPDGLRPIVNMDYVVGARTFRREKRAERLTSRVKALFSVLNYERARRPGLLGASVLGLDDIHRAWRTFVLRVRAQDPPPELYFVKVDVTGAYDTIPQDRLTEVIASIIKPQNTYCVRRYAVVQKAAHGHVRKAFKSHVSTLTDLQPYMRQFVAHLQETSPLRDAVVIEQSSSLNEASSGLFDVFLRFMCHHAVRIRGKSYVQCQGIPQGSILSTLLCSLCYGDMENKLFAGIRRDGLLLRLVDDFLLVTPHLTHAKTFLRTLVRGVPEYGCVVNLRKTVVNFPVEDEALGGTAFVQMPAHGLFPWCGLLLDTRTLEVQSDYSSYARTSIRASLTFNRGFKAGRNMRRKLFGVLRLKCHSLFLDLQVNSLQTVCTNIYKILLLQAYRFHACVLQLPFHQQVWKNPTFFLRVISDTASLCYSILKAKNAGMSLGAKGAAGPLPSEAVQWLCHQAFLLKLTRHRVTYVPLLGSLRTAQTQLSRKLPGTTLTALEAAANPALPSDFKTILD

Question: Nc1nc(O)nc2c1ncn2C1CC(O)C(COP(=O)(O)OP(=O)(O)OP(=O)(O)O)O1 (stereo not drawn) [2-OH-dATP] was tested. Which “YIntercept (line fit of ln(100-%LB) vs # telomere repeats)” value (2-OH-dATP 31μM) did it give?
Answer: The value was 3.86 and 4.26 and 3.87.

Question: What about the “ln(100-%LB)” value (2-OH-dATP 31μM, telomere repeat 1) of the same compound?
Answer: Its value is 3.80 and 4.29 and 3.78.

Question: And the “ln(100-%LB)” value (2-OH-dATP 31μM, telomere repeat 2)?
Answer: Its value is 3.30 and 3.65 and 3.08.

Question: What about the “ln(100-%LB)” value (2-OH-dATP 31μM, telomere repeat 3) of the same compound?
Answer: Its value is 2.75 and 3.04 and 2.41.

Question: And the “ln(100-%LB)” value (2-OH-dATP 31μM, telomere repeat 4)?
Answer: Its value is 2.47 and 2.74 and 2.04.

Question: And the “ln(100-%LB)” value (2-OH-dATP 31μM, telomere repeat 5)?
Answer: Its value is 2.09 and 2.42 and 1.67.

Question: And the “ln(100-%LB)” value (2-OH-dATP 31μM, telomere repeat 6)?
Answer: The value was 1.74 and 2.03 and 1.15.

Question: What about the “Processivity R 1/2” value (2-OH-dATP 31.25 μM) of the same compound?
Answer: Its value is 2.08 and 3.03 and 1.6.

Question: And the “Processivity R 1/2” value (2-OH-dATP 62.5 μM)?
Answer: The value was 1.82 and 1.19 and 1.25.

Question: What about the “Processivity R 1/2” value (2-OH-dATP 250μM) of the same compound?
Answer: Its value is 0.71 and 1.05 and 0.94.

Question: What about the “YIntercept (line fit of ln(100-%LB) vs # telomere repeats)” value (2-OH-dATP 250μM) of the same compound?
Answer: Its value is 4.34 and 4.78 and 4.14.

Question: And the “ln(100-%LB)” value (2-OH-dATP 250μM, telomere repeat 1)?
Answer: The value was 3.46 and 4.32 and 3.82.

Question: And the “ln(100-%LB)” value (2-OH-dATP 250μM, telomere repeat 2)?
Answer: The value was 2.39 and 3.46 and 2.75.

Question: What about the “Processivity R 1/2” value (2-OH-dATP 500μM) of the same compound?
Answer: The value was 0.82 and 0.52 and 1.02.

Question: What about the “YIntercept (line fit of ln(100-%LB) vs # telomere repeats)” value (2-OH-dATP 500μM) of the same compound?
Answer: Its value is 3.92 and 4.75 and 4.04.

Question: And the “ln(100-%LB)” value (2-OH-dATP 500μM, telomere repeat 1)?
Answer: Its value is 3.41 and 4.41 and 3.82.

Question: What about the “ln(100-%LB)” value (2-OH-dATP 500μM, telomere repeat 2) of the same compound?
Answer: The value was 2.30 and 3.46 and 2.66.

Question: What about the “YIntercept (line fit of ln(100-%LB) vs # telomere repeats)” value (2-OH-dATP 750μM) of the same compound?
Answer: The value was 4.21 and 5.17 and 4.34.

Question: And the “ln(100-%LB)” value (2-OH-dATP 750μM, telomere repeat 1)?
Answer: The value was 2.99 and 4.03 and 3.90.

Question: What about the “YIntercept (line fit of ln(100-%LB) vs # telomere repeats)” value (2-OH-dATP 1000μM) of the same compound?
Answer: Its value is 4.31 and 5.20 and 4.71.

Question: What about the “ln(100-%LB)” value (2-OH-dATP 1000μM, telomere repeat 1) of the same compound?
Answer: The value was 2.98 and 4.07 and 3.49.

Question: What about the “ln(100-%LB)” value (2-OH-dATP 1500μM, telomere repeat 2) of the same compound?
Answer: The value was 0.48.

Question: And the “Processivity R 1/2” value (2-OH-dATP 2000 μM)?
Answer: The value was 0.

Question: What about the IC50 (2-OH-dATP, mean of N1-N3, SD 66.28, read-out: Mean IC50 (processivity R 1/2)) of the same compound?
Answer: The IC50 was 103 µM.

Question: And the “Bottom (best-fit, processivity R 1/2 vs log concentration)” value (2-OH-dATP, per replicate N1-N3)?
Answer: The value was 0.09 and -0.00587 and 0.62.

Question: What about the “HillSlope (processivity)” value (2-OH-dATP, per replicate N1-N3) of the same compound?
Answer: Its value is -1.28 and -0.83 and -0.032.

Question: And the “Span (best-fit, processivity R 1/2 vs log concentration)” value (2-OH-dATP, per replicate N1-N3)?
Answer: The value was 2.29 and 2.84 and 1.84.

Question: What about the “Top (best-fit, processivity R 1/2 vs log concentration)” value (2-OH-dATP, per replicate N1-N3) of the same compound?
Answer: The value was 2.38 and 2.84 and 2.47.

Question: And the “LogIC50 (processivity)” value (2-OH-dATP, per replicate N1-N3)?
Answer: Its value is 2.24 and 1.99 and 1.60.

Question: And the IC50 (2-OH-dATP, per replicate N1-N3, read-out: IC50 (processivity R 1/2))?
Answer: Its IC50 is 172 µM and 97 µM and 39.4 µM.

Question: What about the IC50 [1] of the same compound?
Answer: The IC50 was 103 ± 66 µM.

Question: And the IC50 [2]?
Answer: The IC50 was 126 µM.

Question: Which results are given for Nc1nc2c(ncn2C2CC(O)C(COP(=O)(O)OP(=O)(O)OP(=O)(O)O)O2)c(=S)[nH]1 (stereo not drawn) [6-thio-dGTP]?
Answer: Processivity R 1/2 (6-thio-dGTP 0.625μM): 4.12 and 2.32 and 3.78; YIntercept (line fit of ln(100-%LB) vs # telomere repeats) (6-thio-dGTP 0.625μM): 2.91 and 3.25 and 3.64; ln(100-%LB) (6-thio-dGTP 0.625μM, telomere repeat 1): 3.70 and 3.69 and 3.62; ln(100-%LB) (6-thio-dGTP 0.625μM, telomere repeat 2): 3.11 and 3.16 and 3.05; ln(100-%LB) (6-thio-dGTP 0.625μM, telomere repeat 3): 2.56 and 2.68 and 2.52; ln(100-%LB) (6-thio-dGTP 0.625μM, telomere repeat 4): 2.29 and 2.48 and 2.27; ln(100-%LB) (6-thio-dGTP 0.625μM, telomere repeat 5): 2.03 and 2.29 and 2.05; ln(100-%LB) (6-thio-dGTP 0.625μM, telomere repeat 6): 1.75 and 2.06 and 1.79; ln(100-%LB) (6-thio-dGTP 0.625μM, telomere repeat 7): 1.47 and 1.85 and 1.49; ln(100-%LB) (6-thio-dGTP 0.625μM, telomere repeat 8): 1.23 and 1.67 and 1.26; ln(100-%LB) (6-thio-dGTP 0.625μM, telomere repeat 9): 0.98 and 1.45 and 0.96; ln(100-%LB) (6-thio-dGTP 0.625μM, telomere repeat 10): 0.71 and 1.24 and 0.68; YIntercept (line fit of ln(100-%LB) vs # telomere repeats) (6-thio-dGTP 10μM): 5.12 and 3.95 and 4.44; ln(100-%LB) (6-thio-dGTP 10μM, telomere repeat 1): 3.39 and 3.57 and 3.48; ln(100-%LB) (6-thio-dGTP 10μM, telomere repeat 2): 1.78 and 2.70 and 1.99; ln(100-%LB) (6-thio-dGTP 10μM, telomere repeat 6): 0.15; ln(100-%LB) (6-thio-dGTP 10μM, telomere repeat 7): -0.27; ln(100-%LB) (6-thio-dGTP 10μM, telomere repeat 8): -0.68; ln(100-%LB) (6-thio-dGTP 10μM, telomere repeat 9): -1.63; IC50 (6-thio-dGTP, mean of N1-N3, SD 1.45, read-out: Mean IC50 (processivity R 1/2)): 5.48 µM; Bottom (best-fit, processivity R 1/2 vs log concentration) [3]: 0.3229 and 0.05037 and -0.0895; HillSlope (processivity) [3]: -2.993 and -0.7699 and -0.9281; Span (best-fit, processivity R 1/2 vs log concentration) [3]: 3.504 and 3.529 and 1.482; Top (best-fit, processivity R 1/2 vs log concentration) [3]: 3.827 and 3.579 and 1.393; LogIC50 (processivity) [3]: 0.8984 and 0.6519 and 0.682; IC50 (6-thio-dGTP, per replicate N1-N3, read-out: IC50 (processivity R 1/2)): 4.49 µM and 4.81 µM; IC50 [1]: 5 ± 2 µM; IC50 [2]: 5.01 µM
